Data taken from PMC6838142, “Nano-Antagonist Alleviates Inflammation and Allows for MRI of Atherosclerosis” (Nanotheranostics, 2019).

How the values were obtained:
Format in all cases: cell-based, mouse
[1] = test system: bone marrow derived monocytes, CCL2-induced migration; assay: CCL2-induced chemotaxis assay; design: cell velocity / distance traveled / chemotactic index: dose or concentration left out as unconfirmed
Procedure: Chemotaxis assays were performed using IBIDI µ-Slides as per the manufacturer's instructions and the recently published guide detailing the protocol. […] Cells were allowed to attach for 3 h at 37 °C, washed with 0.2 mL warm cell culture medium using a pipette tip inserted into µ-channel port, following which 100 nM recombinant mouse CCL2 protein was added as a chemoattractant (or omitted in control slides) to the one of side reservoirs. Cell movement was recorded for a duration of 12 h via phase video-microscopy in a stage-top humidified incubator at 37 °C and 5% CO2 atmosphere. Analysis was performed using the ImageJ IBIDI tracking tool, available free of charge at https://ibidi.com.

NLRP3 inflammasome = assay: Inflammasome activation immunoblot in BMDMs; settings: LPS 50 ng/mL, nigericin 5 µM
Procedure: Immunoblotting was performed as previously described with the following modifications. Briefly, cell lysates were obtained in SDS lysis buffer consisting of 2% SDS, 50 mM Tris-HCl (pH 6.8), 100 mM DTT, 5% Ficoll 400, 0.0001% bromophenol blue and a cocktail of protease inhibitors. Lysates were sonicated on ice before heating at 97 °C for 7 min to completely denature the protein. Protein concentration was determined using IR spectroscopy (which is insensitive to high SDS and DTT concentrations) with a Millipore DirectDetect spectrometer. Lysates were equally loaded at 10-15 µg per lane on BioRad TGX Criterion gels (4-15%) and resolved at 300 V in Tris-Glycine running buffer. Proteins were transferred on nitrocellulose membranes using the BioRad TransBlot turbo according to the manufacturer's instructions. Membranes were blocked in fish serum (Aqua Block) or 5% nonfat dry milk in TBS-T (0.05% Tween 20) and probed overnight at 4 °C with primary antibodies as indicated in Supplementary Table S1. The membranes were washed in TBS-T and incubated with secondary antibodies for 1 h at room temperature. After washing, semi-quantitative visualization of the proteins of interest was enabled using an enhanced chemiluminescence reagent as previously described and the Azure C400 western blot imaging system.
(§1) BMDMs or J774 cells were plated in 48-well plates at 2 x 10^5 per well. Next day, the medium was changed to Opti-MEM (100 μL per well) without serum and the cells were allowed to equilibrate for 3 h. Next, the cells were pretreated with the indicated concentrations of nanoparticles or controls for 3 h followed by the addition of LPS to some wells to the final LPS concentration of 50 ng/mL. LPS priming continued for another 2 h, following which DMSO (vehicle), Nigericin (5 μM) or adenosine triphosphate (ATP) (1 mM) were added to some wells. Cells were incubated for an additional 30 min and cell culture supernatants were collected on ice. Cells were washed with cold PBS once and lysed/processed as described in immunoblotting section. […]

IL-1β = IL-1β release, AlphaLISA; settings: inflammasome experiment supernatants, 4 experiments
Procedure: Cytokines were analyzed by EVE Technologies (https://www.evetechnologies.com) using the Luminex 31-Plex kit. Cell culture supernatants were diluted twice with PBS and provided in biological triplicates to EVE Technologies via overnight shipment in dry ice. Individual IL-1β and TNFɑ assays were performed using Perkin Elmer AlphaLISA kits, as per Supplementary Table S1 and vendor instructions.
as §1, with “section. The supernatants (90 μL) were mixed with 10 μL of 10x SDS loading buffer (10% SDS, 10% Ficoll 400, 0.5 M Tris pH 6.8, 0.5 M DTT, and 0.001% bromophenol blue) and heat-denatured as described in the immunoblotting section.” for “section.”

For CCTV, the cell velocity ([1]; CCL2-induced chemotaxis) was “statistically significant inhibition”, the chemotactic index ([1]; CCL2-induced chemotaxis) was “statistically significant inhibition” and the distance traveled ([1]; CCL2-induced chemotaxis) was “statistically significant inhibition”. The CCL2-induced monocyte migration ([1]; pre-treated BMDMs, 100 nM recombinant mouse CCL2, 12 h, nanoparticles) was “potently inhibited CCL2-induced monocyte migration in an antagonistic manner”, the “IL-1β and its mature form in supernatants (immunoblot)” value (NLRP3 inflammasome) was “dose-dependently inhibited the production of IL-1β and its mature form” and the NLRP3 protein (NLRP3 inflammasome) was “markedly decreased, but only in nigericin-stimulated, CCTV-treated cells”. For the same substance, the “cleaved caspase 1 levels” value (NLRP3 inflammasome) was “reduced” and the IL-1β release (IL-1β) was “confirmed the actions of CCTV”.
